Measurements: ChEMBL document CHEMBL5352386 (Eur J Med Chem, 2022)
Calls of active or inactive are those of the source. The calls are words filed in the database; no cut-off is given here.

How the values were obtained:
Cholinesterase [1] = target: Cholinesterase (Equus caballus, UniProt P81908); test: Inhibition of equine serum BuChE using butyrylthiocholine iodide as substrate incubated for 10 mins followed by substrate addition by DTNB-reagent based Ellman's colorimetric assay
Cholinesterase [2] = target: Cholinesterase (Homo sapiens, UniProt P06276); test: Inhibition of human BuChE using butyrylthiocholine iodide as substrate incubated for 10 mins followed by substrate addition by DTNB-reagent based Ellman's colorimetric assay
Sequence of Cholinesterase (Homo sapiens, UniProt P06276) (P06276 whole entry): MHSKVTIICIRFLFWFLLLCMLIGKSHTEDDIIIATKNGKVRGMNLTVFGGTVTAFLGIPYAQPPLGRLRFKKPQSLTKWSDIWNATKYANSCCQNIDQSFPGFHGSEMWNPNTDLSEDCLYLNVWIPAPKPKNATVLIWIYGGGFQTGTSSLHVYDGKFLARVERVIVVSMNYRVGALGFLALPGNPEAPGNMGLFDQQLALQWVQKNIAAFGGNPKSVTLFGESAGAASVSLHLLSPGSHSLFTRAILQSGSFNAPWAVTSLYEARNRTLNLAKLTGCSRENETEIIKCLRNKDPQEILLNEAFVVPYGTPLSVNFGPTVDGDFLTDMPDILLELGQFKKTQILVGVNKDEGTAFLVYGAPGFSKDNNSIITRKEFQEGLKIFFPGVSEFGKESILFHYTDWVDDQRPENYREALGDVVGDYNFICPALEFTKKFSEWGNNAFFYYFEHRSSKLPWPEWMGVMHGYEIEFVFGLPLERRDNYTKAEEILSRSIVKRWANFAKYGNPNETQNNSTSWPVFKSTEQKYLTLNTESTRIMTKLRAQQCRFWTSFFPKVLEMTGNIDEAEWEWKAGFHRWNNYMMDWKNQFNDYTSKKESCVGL

PC-12 [3] = test: Cytotoxicity against rat PC12 cells assessed as inhibition of cell growth measured after 24 hrs by MTT assay; format: functional, cell-based; settings: PC-12, 24 h
SH-SY5Y [4] = test: Cytotoxicity against human SH-SY5Y cells assessed as inhibition of cell growth measured after 24 hrs by MTT assay; format: functional, cell-based
[5] = Cytotoxicity against mouse BV-2 cells assessed as survival rate at 100 uM measured after 24 hrs by MTT assay relative to control; format: toxicity, cell-based; settings: read-out: Survival
L02 [6] = test: Cytotoxicity against human L02 cells assessed as survival rate at 100 uM measured after 24 hrs by MTT assay relative to control; format: functional; settings: read-out: Survival
PC-12 [7] = test: Cytotoxicity against rat PC12 cells assessed as survival rate at 100 uM measured after 24 hrs by MTT assay relative to control; settings: PC-12, 24 h, read-out: Survival
SH-SY5Y [8] = test: Cytotoxicity against human SH-SY5Y cells assessed as survival rate at 2.5 uM measured after 24 hrs by MTT assay relative to control; format: functional; settings: read-out: Survival
L02 [9] = test: Cytotoxicity against human L02 cells assessed as survival rate at 2.5 uM measured after 24 hrs by MTT assay relative to control; format: functional; settings: read-out: Survival
Mus musculus [10] = test: Neuroprotective activity against Abeta42 induced cognition impairement in AD mouse model assessed as reduction in latency time to platform at 10 mg/kg, po measured after 14 days by Morris water maze analysis; format: functional, organism-based; settings: time 14.0 day
Mus musculus [11] = test: Neuroprotective activity against Abeta42 induced cognition impairement in AD mouse model assessed as reduction in confusion of escape trajectory at 10 mg/kg, po measured after 14 days; format: functional, organism-based; settings: time 14.0 day
[12] = Cytotoxicity against mouse BV-2 cells assessed as survival rate at 2.5 uM measured after 24 hrs by MTT assay relative to control; format: toxicity, cell-based; settings: read-out: Survival
[13] = Cytotoxicity against mouse BV-2 cells assessed as inhibition of cell growth measured after 24 hrs by MTT assay; format: toxicity, cell-based

Sequence of Cholinesterase (Equus caballus, UniProt P81908) (P81908 whole entry): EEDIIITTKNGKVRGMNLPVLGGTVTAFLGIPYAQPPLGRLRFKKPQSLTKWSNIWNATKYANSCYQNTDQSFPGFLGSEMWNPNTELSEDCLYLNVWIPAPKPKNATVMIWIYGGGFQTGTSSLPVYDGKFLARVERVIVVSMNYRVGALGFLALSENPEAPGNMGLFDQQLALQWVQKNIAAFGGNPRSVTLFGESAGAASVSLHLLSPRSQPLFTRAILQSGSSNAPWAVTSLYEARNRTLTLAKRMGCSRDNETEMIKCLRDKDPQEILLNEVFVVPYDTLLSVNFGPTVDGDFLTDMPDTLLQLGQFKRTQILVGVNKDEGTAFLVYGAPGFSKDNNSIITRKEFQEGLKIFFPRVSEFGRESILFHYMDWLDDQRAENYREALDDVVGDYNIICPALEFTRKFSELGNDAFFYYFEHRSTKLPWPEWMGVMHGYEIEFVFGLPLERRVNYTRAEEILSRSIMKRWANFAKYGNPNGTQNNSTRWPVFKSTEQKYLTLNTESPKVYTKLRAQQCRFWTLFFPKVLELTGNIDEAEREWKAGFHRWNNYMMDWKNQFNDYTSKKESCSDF

Structure (SMILES)	IC50 (Cholinesterase [1]) [nM]	IC50 (Cholinesterase [2]) [nM]	IC50 (PC-12 [3]) [nM]	IC50 (SH-SY5Y [4]) [nM]	viability at 24 h, 100 µM [5] [%]	viability at 100 µM (L02 [6]) [%]	viability at 100 µM (PC-12 [7]) [%]	viability at 2.5 µM (SH-SY5Y [8]) [%]	viability at 2.5 µM (L02 [9]) [%]	Activity (Mus musculus [10])	Activity (Mus musculus [11])	viability at 24 h, 2.5 µM [12] [%]	IC50 at 24 h [13] [nM]
Cc1cc(NC(=O)Cn2c(-c3nonc3N)nc3ccccc32)cc([N+](=O)[O-])c1	47.6	278	28800	58900	79.8	79.1	–	–	–	–	–	–	–
N#Cc1cc(Cl)cc(NC(=O)Cn2c(-c3nonc3N)nc3ccccc32)c1	2.04	83.9	–	–	64.7	–	87	24.6	44.5	–	–	–	–
COc1cc2c(cc1OC)C(=O)C(CC1CCN(Cc3ccccc3)CC1)C2 (stereo not drawn)	–	–	–	–	–	–	–	–	–	Active	Active	–	–
Nc1nonc1-c1nc2ccccc2n1CC(=O)Nc1cc(F)cc(C(F)(F)F)c1	255	155	–	–	–	–	74.4	23.4	39.5	–	–	39.5	–
COC(=O)c1cc(NC(=O)Cn2c(-c3nonc3N)nc3ccccc32)cc(C(=O)OC)c1	1.48	222	–	58000	–	84	50.5	–	–	–	–	–	40400
Nc1nonc1-c1nc2ccccc2n1CC(=O)Nc1cc(Br)cc(Br)c1	3.84	27.9	6560	–	52	85.3	–	27.3	–	–	–	–	–
Nc1nonc1-c1nc2ccccc2n1CC(=O)Nc1cc(C(F)(F)F)cc(C(F)(F)F)c1	7.72	935	–	–	100	74.2	50.2	46.1	–	–	–	–	–
